From ChEMBL document CHEMBL1201862, “PubChem BioAssay data set” (2004)
Values belong to the compound of their own block, whether it stands above or below them. The source made the active and inactive calls.

Legend:
[1] = fluconazole-exposed Candida albicans growth modulators – fluorescence, retest, confirmation (AID 2467); format: functional, cell-based
[2] = NIH-3T3 fibroblast cytotoxicity, dose response, cytotoxicity control, cell-based, fluorescence, Alamar Blue, secondary assay (AID 2327); format: functional;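 note: NIH-3T3 mouse fibroblasts cultured with fluconazole at 8 µg/mL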
[3] = target: T1, DNA repair protein RAD52 homolog (Homo sapiens, UniProt P43351); format: functional, biochemical
T1 sequence (P43351 whole entry): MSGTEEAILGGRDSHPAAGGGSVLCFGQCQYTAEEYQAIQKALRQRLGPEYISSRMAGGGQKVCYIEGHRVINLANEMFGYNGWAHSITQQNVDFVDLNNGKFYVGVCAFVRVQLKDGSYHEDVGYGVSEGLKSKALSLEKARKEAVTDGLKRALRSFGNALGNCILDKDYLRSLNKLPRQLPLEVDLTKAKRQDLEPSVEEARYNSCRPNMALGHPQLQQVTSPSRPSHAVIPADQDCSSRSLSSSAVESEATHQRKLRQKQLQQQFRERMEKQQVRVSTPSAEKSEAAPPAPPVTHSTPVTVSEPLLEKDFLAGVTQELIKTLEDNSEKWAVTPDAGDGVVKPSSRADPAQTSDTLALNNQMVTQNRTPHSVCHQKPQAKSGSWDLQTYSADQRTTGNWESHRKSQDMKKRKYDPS

[4] = target: Multidrug resistance protein CDR2 (Candida albicans (strain SC5314 / ATCC MYA-2876) (Yeast), UniProt P78595); assay: inhibition of Nile Red efflux via Candida CDR2 – S. cerevisiae AD1-8u, singleplex, Cherry Pick1 hits, dose response (AID 588604); format: functional
Sequence of Multidrug resistance protein CDR2 (P78595 whole entry): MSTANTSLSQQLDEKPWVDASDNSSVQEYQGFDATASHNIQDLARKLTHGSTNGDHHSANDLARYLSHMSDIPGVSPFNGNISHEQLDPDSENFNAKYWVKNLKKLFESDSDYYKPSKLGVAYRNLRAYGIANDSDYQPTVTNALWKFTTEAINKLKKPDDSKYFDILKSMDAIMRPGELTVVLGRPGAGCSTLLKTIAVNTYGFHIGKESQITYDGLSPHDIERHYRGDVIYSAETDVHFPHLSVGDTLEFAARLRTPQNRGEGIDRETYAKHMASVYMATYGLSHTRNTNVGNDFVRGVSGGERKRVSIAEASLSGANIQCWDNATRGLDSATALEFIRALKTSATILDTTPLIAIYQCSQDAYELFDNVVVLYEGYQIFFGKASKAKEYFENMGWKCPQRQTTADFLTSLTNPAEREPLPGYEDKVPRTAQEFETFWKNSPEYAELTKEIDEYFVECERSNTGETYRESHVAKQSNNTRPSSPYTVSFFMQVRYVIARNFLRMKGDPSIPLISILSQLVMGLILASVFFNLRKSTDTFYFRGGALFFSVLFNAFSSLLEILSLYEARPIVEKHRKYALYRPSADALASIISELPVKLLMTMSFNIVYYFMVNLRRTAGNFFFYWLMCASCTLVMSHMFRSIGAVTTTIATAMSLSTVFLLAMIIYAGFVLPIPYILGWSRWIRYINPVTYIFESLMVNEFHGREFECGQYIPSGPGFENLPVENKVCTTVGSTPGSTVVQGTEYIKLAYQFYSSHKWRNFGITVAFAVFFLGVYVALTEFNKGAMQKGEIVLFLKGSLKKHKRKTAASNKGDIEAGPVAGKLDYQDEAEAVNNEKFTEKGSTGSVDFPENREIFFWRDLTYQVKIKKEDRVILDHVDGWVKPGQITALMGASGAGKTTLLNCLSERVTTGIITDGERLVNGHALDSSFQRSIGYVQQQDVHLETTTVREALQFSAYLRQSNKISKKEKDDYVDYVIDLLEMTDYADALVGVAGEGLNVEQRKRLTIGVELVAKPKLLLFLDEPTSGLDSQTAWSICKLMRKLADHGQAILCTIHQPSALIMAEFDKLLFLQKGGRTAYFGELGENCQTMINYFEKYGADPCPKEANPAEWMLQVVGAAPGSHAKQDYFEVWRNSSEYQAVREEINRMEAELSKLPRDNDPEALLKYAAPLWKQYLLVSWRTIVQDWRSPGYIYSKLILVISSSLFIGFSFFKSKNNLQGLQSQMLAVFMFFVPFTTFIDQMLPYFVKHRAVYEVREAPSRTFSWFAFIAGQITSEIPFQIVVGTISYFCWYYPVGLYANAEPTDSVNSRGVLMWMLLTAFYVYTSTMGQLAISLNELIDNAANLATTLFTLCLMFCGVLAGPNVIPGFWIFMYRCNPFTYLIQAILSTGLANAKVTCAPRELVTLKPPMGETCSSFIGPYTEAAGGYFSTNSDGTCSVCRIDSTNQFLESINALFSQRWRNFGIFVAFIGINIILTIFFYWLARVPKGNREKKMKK

[5] = target: T2, High affinity choline transporter 1 (Homo sapiens, UniProt Q9GZV3); assay: human choline transporter blockers, potency – cell-based, 10-point CRC, membrane potential dye, dose response (AID 588401); format: functional;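 note: membrane potential dye fluorescence of choline-evoked depolarization via CHT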
T2 sequence (Q9GZV3 whole entry): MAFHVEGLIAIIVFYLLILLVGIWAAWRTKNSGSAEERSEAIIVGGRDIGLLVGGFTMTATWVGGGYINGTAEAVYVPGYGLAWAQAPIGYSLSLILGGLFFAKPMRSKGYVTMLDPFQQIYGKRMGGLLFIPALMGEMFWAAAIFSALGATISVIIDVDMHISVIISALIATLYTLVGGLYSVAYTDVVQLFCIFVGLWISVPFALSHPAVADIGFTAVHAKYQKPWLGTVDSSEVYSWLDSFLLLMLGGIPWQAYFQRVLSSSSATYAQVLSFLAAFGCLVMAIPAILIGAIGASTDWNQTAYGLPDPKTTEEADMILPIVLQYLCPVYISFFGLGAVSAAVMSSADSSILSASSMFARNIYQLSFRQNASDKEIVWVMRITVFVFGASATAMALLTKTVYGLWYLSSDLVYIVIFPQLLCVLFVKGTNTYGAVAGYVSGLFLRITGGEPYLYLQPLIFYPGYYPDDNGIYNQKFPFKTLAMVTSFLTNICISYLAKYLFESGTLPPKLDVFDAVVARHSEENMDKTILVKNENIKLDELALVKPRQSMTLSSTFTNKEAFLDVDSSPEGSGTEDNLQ

[6] = target: T2, High affinity choline transporter 1; assay: human choline transporter blockers, potency – cell-based, 5-point CRC, membrane potential dye, dose response (AID 504840); format: functional
[7] = target: T3, Neuropeptides B/W receptor type 1 (Homo sapiens, UniProt P48145); assay: human NPBW1 receptor blockade, IC50 – cell-based, fluorescence, dose response, set 5, late-stage follow-up (AID 588566); format: functional
T3 sequence (P48145 whole entry): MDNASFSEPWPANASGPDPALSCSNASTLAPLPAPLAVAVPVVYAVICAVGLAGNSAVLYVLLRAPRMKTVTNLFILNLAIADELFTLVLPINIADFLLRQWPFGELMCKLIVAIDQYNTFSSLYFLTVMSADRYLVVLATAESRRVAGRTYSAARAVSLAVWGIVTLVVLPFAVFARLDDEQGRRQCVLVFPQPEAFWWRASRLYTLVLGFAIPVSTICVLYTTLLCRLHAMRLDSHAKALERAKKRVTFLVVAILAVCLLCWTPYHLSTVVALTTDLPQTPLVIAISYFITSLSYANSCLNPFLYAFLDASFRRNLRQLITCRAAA

[8] = target: Melanin-concentrating hormone receptor 1 (Homo sapiens, UniProt Q99705); assay: Late-stage fluorescence-based counterscreen for antagonists of the G-protein coupled receptor 7 (GPR7): cell-based dose response assay to identify antagonists of the melanin-concentrating hormone receptor 1 (MCHR1) Set 5.; format: functional
Sequence of Melanin-concentrating hormone receptor 1 (Q99705 whole entry): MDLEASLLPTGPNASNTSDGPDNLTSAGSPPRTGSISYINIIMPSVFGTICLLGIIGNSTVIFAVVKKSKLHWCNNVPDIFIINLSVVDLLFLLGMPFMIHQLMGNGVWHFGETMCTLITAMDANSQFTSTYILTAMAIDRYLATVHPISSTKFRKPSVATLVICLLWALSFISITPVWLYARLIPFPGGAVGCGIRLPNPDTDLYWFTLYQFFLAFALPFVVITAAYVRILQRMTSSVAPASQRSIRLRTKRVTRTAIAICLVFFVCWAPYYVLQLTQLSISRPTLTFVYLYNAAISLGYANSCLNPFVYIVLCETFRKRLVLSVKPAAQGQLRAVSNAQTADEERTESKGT

Compound: Cc1c(CCOC(=O)CC23CC4CC(CC(C)(C4)C2)C3)sc[n+]1Cc1ccc([N+](=O)[O-])cc1
EC50 [1]: > 38 µM (not active) | EC50 [2]: > 150 µM (inactive) | AC50 [3]: 15.6 µM (active) | EC50 [4]: 10.9 µM (active)

IC50 [5]: 4.74 µM (active) | IC50 [6]: 8.13 µM (active)
Compound: COc1ccc(C(=O)NCCCSC)cc1OC1CCN(C(C)C)CC1

IC50 [7]: 11.8 µM (inactive) | IC50 [8]: > 20 µM (inactive)
Compound: CCOC(=O)C(C(N)=O)c1c(Cl)cnn(Cc2cccc3ccccc23)c1=O (stereo not drawn)
